# Reference: patent US20110152313A1 (MACQUARIE UNIVERSITY, priority 2008, published 2011)
# pKd: −log10 of the molar value.
# Assays:
# Assay in all cases: kinase binding constant, 11-point dose response (T7 phage, qPCR)
# Conditions in all cases: >30 = no inhibition at highest concentration tested
# [1] = biological target: T1, TYK2 (Homo sapiens, UniProt P29597)
# T1 construct: TYK2(JH2domain-pseudokinase)
# Experimental: (§1) Kinase inhibition studies were performed by methods well known in the prior art (Fabian, M. A. et al. Nat. Biotechnol. 2005, 23, 329). Briefly, kinase-tagged T7 phage strains were prepared in an E. coli host derived from the BL21 strain. E. coli were grown to log-phase and infected with T7 phage and incubated with shaking at 32° C. until lysis. The lysates were centrifuged and filtered to remove cell debris. […] The liganded beads were blocked with excess biotin and washed with blocking buffer (SeaBlock (Pierce); 1% BSA, 0.05% Tween 20, 1 mM DTT) to remove unbound ligand and to reduce non-specific binding. […] All reactions were performed in polystyrene 96-well plates in a final volume of 0.135 ml. […] The kinase concentration in the eluates was measured by qPCR.
# (§2) An 11-point 3-fold serial dilution of each test compound (from 30 μM to 0.5 nM) was prepared in 100% DMSO at 100× final test concentration and subsequently diluted to 1× in the assay (final DMSO concentration=1%). Binding constants (KDS) were calculated with a standard dose-response curve using a 5-point sigmoidal (Hill) equation.
# [2] = biological target: T2, IRAK3 (Homo sapiens, UniProt Q9Y616)
# T2 sequence (Q9Y616 1-596): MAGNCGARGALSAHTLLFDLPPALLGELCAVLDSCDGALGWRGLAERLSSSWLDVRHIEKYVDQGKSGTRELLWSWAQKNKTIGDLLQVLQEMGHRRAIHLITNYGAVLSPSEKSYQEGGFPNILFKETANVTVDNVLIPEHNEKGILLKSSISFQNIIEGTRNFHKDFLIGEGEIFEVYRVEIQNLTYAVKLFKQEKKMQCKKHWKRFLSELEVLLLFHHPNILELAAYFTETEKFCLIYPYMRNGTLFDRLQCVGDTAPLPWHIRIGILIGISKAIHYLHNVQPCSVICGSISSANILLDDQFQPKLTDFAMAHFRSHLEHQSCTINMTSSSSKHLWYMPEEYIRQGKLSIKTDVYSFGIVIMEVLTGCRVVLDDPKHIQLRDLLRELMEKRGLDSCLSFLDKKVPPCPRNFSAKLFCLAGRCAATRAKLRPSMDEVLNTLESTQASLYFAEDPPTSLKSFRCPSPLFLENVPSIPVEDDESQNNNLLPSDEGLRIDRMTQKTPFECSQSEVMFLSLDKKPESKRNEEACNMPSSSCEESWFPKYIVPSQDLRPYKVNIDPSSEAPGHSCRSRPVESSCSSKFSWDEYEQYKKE
# Experimental: as §1, §2
# [3] = biological target: YANK2 (Homo sapiens, UniProt Q9NY57)
# Experimental: as §1, §2
# [4] = biological target: PIK4CB (Homo sapiens, UniProt Q9UBF8)
# Experimental: as §1, §2
# [5] = biological target: T3, RSK1 (Homo sapiens, UniProt Q15418)
# T3 construct: RPS6KA1(Kin.Dom.2-C-terminal)
# Experimental: as §1, §2
# [6] = biological target: T4, PRKCE (Homo sapiens, UniProt Q02156)
# T4 sequence (Q02156 1-737): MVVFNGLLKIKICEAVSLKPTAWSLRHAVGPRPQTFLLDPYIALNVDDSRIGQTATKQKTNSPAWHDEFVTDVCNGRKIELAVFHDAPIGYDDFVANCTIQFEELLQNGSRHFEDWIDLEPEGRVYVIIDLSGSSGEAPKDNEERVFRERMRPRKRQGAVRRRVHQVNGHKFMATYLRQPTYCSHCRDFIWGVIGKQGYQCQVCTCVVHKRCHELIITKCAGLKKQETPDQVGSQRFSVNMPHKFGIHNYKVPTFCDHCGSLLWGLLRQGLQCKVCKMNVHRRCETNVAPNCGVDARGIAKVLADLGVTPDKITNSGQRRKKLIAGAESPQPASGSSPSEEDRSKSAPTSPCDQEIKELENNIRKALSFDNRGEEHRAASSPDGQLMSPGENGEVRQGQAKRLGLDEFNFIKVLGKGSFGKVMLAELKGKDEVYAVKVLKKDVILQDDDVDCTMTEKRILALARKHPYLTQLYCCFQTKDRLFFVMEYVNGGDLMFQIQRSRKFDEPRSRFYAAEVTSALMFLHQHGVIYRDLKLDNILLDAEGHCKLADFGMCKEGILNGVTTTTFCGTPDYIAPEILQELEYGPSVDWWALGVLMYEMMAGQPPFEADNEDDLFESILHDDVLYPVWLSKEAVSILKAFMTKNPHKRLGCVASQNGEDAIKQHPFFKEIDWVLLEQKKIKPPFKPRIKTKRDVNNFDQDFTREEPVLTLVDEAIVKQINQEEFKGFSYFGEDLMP
# Experimental: as §1, §2
# [7] = biological target: AAK1 (Homo sapiens, UniProt Q2M2I8)
# Experimental: as §1, §2
# T1 sequence (P29597 whole entry): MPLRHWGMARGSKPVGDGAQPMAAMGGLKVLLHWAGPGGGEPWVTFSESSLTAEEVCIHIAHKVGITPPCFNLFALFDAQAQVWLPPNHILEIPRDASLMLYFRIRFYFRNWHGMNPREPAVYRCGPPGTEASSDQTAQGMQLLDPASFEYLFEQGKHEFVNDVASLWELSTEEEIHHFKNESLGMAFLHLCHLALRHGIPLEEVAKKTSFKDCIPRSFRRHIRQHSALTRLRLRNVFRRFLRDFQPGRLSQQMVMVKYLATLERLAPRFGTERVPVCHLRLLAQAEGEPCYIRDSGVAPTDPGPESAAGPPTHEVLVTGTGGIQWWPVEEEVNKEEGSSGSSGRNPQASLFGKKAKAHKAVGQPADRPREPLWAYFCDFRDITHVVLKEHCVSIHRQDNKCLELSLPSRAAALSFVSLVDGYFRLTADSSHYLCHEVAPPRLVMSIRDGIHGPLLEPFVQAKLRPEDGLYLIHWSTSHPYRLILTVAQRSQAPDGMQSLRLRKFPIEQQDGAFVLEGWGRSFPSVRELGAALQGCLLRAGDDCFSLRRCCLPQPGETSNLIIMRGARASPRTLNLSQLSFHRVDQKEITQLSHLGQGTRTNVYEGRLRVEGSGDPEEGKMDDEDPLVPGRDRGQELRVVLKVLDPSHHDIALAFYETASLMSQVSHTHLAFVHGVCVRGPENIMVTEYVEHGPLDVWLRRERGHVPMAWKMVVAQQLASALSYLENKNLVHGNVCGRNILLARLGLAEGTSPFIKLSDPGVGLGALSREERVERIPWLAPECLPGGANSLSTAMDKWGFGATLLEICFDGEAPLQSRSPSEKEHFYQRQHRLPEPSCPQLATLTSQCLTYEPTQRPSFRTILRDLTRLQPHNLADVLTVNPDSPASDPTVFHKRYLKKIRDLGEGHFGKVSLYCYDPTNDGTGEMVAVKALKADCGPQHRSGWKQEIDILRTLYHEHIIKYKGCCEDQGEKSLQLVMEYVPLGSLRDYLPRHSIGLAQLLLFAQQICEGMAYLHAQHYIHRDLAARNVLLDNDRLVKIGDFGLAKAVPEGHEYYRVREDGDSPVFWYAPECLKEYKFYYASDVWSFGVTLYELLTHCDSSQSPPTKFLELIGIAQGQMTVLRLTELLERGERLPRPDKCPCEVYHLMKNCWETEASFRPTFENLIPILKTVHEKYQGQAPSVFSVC
# T3 sequence (Q15418 whole entry): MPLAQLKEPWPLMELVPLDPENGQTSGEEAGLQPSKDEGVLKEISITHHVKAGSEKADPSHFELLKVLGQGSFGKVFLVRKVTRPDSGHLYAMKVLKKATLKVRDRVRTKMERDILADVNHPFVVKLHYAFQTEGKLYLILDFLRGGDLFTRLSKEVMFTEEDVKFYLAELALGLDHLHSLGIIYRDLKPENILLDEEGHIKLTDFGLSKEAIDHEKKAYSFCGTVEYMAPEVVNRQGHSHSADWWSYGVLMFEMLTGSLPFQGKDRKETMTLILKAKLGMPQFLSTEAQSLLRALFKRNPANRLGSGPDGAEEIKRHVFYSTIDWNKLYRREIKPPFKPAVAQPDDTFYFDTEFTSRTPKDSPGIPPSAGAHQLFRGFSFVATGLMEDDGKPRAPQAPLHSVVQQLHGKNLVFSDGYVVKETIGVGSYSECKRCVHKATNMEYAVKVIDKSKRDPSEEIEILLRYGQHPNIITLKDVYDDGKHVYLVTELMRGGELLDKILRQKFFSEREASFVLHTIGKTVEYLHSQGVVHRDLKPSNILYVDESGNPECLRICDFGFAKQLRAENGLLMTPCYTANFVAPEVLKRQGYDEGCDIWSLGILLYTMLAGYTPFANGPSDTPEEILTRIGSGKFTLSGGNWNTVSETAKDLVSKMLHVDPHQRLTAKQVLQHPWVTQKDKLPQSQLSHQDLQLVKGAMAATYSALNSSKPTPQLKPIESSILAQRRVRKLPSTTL
# Sequence of PIK4CB (Q9UBF8 whole entry, species assumed): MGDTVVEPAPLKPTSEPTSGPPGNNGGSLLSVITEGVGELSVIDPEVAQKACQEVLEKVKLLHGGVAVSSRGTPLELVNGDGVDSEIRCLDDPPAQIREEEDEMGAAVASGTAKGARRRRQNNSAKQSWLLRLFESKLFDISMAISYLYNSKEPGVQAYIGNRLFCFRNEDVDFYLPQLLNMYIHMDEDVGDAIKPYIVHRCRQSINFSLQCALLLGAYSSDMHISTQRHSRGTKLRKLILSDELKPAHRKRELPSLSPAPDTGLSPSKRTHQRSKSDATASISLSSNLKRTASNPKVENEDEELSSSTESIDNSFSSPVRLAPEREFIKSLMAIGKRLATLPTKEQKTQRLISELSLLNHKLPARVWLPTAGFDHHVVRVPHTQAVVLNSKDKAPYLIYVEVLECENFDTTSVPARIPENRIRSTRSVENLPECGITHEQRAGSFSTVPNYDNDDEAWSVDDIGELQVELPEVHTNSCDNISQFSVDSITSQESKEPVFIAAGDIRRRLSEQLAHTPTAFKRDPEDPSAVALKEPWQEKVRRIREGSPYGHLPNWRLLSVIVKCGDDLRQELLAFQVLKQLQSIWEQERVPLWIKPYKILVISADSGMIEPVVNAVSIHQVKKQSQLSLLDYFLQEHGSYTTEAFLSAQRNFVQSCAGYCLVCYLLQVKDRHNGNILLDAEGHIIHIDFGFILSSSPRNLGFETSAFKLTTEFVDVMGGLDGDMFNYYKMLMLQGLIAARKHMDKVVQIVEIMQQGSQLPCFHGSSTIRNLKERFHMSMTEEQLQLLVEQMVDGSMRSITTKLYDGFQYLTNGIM
# Sequence of YANK2 (Q9NY57 whole entry): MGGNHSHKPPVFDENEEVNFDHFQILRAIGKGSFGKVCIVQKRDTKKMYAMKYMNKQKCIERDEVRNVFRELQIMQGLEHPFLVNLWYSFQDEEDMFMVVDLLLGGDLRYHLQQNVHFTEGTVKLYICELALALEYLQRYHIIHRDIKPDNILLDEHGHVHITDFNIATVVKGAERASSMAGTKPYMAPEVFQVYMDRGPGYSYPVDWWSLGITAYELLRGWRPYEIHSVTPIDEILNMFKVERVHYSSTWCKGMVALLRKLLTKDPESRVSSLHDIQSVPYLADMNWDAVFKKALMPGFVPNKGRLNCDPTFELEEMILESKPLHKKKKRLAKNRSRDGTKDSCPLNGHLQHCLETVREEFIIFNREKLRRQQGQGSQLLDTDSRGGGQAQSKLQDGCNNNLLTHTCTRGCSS
# Sequence of AAK1 (Q2M2I8 whole entry): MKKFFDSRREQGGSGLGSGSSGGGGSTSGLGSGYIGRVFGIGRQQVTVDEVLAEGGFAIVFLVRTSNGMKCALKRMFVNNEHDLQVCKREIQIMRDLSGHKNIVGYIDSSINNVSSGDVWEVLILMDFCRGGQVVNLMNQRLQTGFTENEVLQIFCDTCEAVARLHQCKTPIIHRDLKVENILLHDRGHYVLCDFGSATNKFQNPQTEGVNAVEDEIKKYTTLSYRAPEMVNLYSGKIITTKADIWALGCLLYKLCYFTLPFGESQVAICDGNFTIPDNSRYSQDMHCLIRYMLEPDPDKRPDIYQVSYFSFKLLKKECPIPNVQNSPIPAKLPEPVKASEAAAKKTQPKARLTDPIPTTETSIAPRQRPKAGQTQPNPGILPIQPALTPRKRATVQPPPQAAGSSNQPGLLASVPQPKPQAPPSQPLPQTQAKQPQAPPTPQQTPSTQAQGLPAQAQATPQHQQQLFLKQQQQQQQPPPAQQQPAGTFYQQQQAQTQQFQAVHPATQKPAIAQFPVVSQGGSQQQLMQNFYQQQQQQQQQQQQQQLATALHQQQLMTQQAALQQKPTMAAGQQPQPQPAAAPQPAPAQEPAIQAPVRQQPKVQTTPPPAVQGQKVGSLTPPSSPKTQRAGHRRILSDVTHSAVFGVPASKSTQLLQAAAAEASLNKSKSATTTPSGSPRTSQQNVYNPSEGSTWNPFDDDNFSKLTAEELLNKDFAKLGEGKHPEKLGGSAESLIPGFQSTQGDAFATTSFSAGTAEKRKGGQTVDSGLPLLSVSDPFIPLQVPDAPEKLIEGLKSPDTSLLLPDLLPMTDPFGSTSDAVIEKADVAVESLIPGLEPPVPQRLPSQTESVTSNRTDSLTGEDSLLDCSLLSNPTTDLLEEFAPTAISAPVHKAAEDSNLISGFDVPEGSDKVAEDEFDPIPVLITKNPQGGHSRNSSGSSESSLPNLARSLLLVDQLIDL
SMILES,pKd [1],pKd [2],pKd [3],pKd [4],pKd [5],pKd [6],pKd [7]
"Nc1nc2c(-c3cnc4ccccc4c3)nccc2[nH]1 [drawing 36, 4-(quinolin-3-yl)-1H-imidazo[4,5-c]pyridin-2-amine]",6.54,5.05,< 4.52,6.46,,,
"Nc1nc2c(-c3ccccn3)nccc2[nH]1 [drawing 35, 4-(pyrid-2-yl)-1H-imidazo[4,5-c]pyridin-2-amine]",,,,,6.28,< 4.52,5.82
